Entries after “also recorded” stand apart in the source; their conditions may differ.
Assays:
[1] = system: bovine choroidal microvascular endothelial cells (BCEC); experiment: BCEC proliferation assay; format: cell-based; conditions: for stimulation of BCEC proliferation by structurally related molecules: with or without VEGF, 0.04 μM-5 mM; for block of ManN effects on BCEC proliferation by monosaccharides: monosaccharide at maximum 1:10 molar ratio, added after 2 hours ManN; for stimulatory effect of hexosamines on BCEC proliferation: tested alongside ManN, FIG. 1D
Experimental: Proliferation assays with BCECs and BRECs were performed. Log-phase growing BCECs or BRECs (passage <10) were trypsinized, re-suspended and seeded in 96-well plates (no coating) in low-glucose DMEM supplemented with 10% bovine calf serum, 2 mM glutamine, and antibiotics (growth medium), at a density of 1200-1500 cells per well in 200 μl volume. All reagents were added at the indicated final concentrations. […] Fluorescence was measured at 530 nm excitation wavelength and 590 nm emission wavelength. The experiments were repeated at least three times. […] On each 96-well plate, untreated and VEGF-treated (10/ng/ml) wells were included to monitor plate-to-plate variations. 20% methanol or 0.05% DMSO served as negative controls. 0.05% DMSO served as negative controls when Cas was tested in these cells. Human […] and human adult […] were split into Gelatin-coated 96 wells (2000 cells per well) in low glucose DMEM containing 10% FBS. 1200 cells/well was set up for proliferation assay in low glucose media containing FBS. […] HUVEC (p7-10) were grown on gelatin-coated plate until it reached 70-80% confluency. On the day of the assay, cells were dissociated with 0.05% trypsin, which was neutralized with 0.5% FBS-containing EBM. Cells were briefly spun and then re-suspended in 0.5% FBS-media. Cells were counted and plated in 96-well, 1000 cells/well. Triplicate wells were used for each treatment. Data were collected at day 3, and then cells were fixed in 4% paraformaldehyde for 15 min before adding crystal violet. Cell-covered areas were quantified after taking pictures by Image J software.

Bip, CHOP and ATF-6 = experiment: Western blot of UPR responsive proteins in BCECs; format: cell-based, bovine; conditions: for prevention of CHOP induction by ManN: 2 mM 4-PBA or 500 uM TUDCA, ManN at 400 uM and 5 mM; for restoration of ATF-6 expression: ManN at 400 uM
Experimental: (§1) Cells were allowed to reach ˜80% confluency in 12-well plates. […] At various time points, plates were taken out of the incubator and kept on ice. Cell monolayers were first washed once with ice-cold PBS before lysis with 250 μl of Pierce RIPA buffer (ThermoFisher Scientific, Rockford, IL) or use 50 mM Tris-HCl (pH 7.6), 150 mM NaCl, 10% Glycerol, 1% NP-40 containing protease/Phosphatase inhibitor cocktail (100×) (Cell signaling, #5872). Lysates were collected and mixed with 4×Bolt LDS Sample Buffer (Novex, Carlsbad, CA) in the presence of Halt protease inhibitors and phosphatase inhibitor cocktail (ThermoFisher scientific, #NP0007). The samples were subjected to SDS-PAGE (Bolt 4-12% Bis-Tris Plus, Invitrogen) using Bolt MES SDS running buffer or NuPAGE 3-8% Tris-Acetate gel using Tris-Acetate SDS running buffer (Novex). HUVECs (passage 6-8) were plated in EBM-2 basal medium (Lonza) with 0.2% FBS. […] Equal amounts of protein lysates were analyzed by SDS-PAGE and blotted with the indicated antibodies. Proteins were transferred using Tris-Glycine buffer with 20% Methanol (Proteonomics grade) (Apex BioResearch Products). Membranes were first incubated with 5% milk in TBST, pH 7.6 (TEKnova, Hollister, CA), followed by blotting with primary and secondary antibodies. ECL anti-rabbit IgG, horseradish peroxidase linked whole antibody from donkey or sheep anti-mouse were obtained from GE Healthcare (UK limited). SuperSignal West Dura Extended Duration substrate was from ThermoFisher Scientific. In some cases, the same PVDF membranes were stripped by 8-min incubation in the Restore Plus Western Blot Stripping Buffer (ThermoFisher Scientific) to show total specific protein expression, followed by second stripping for β-actin expression.

[2] = system: ERK, AKT, mTOR, CREB, ACC and eNOS; experiment: Western blot of signal transduction pathways in BCECs; format: cell-based, bovine
Experimental: as §1

VEGFR2 = experiment: Western blot of VEGFR2 molecular mass in BCECs and BRECs; format: cell-based, bovine; conditions: 24 hours; SDS-PAGE
Experimental: Glycerol-free PNGase F was obtained from New England Biolabs (Ipswich, MA). Briefly, BCECs were lysed with NP-40 containing proteinase inhibitors (Thermo Scientific, Waltham, MA). Lysates were cleared at 4° C. at 5000 g for 25 mins. Total protein content was measured using Pierce BCA protein assay kit (ThermoScientific). […] of protein was mixed with 10× denaturing buffer and H2O to a total volume of […]. Glycoproteins were denatured at 100° C. for 10 mins, followed by adding Glycobuffer and PNGase F. The reaction was carried out at 37° C. for 2 hr.
as §1

ERK and AKT = experiment: Western blot of ERK and AKT activation in HUVEC and hDMVECs; format: cell-based, human; conditions: hDMVECs
Experimental: as §1, with “80%” for “˜80%”, “ECL anti-rabbit IgG, horseradish peroxidase linked whole antibody from donkey or sheep anti-mouse were obtained from GE Healthcare (UK limited). SuperSignal West Dura Extended Duration substrate was from ThermoFisher Scientific. In some cases, the same PVDF membranes were stripped by 8-min incubation in the Restore Plus Western Blot Stripping Buffer (ThermoFisher Scientific) to show total specific protein expression, followed by second stripping for β-actin expression.” left out

[3] = system: BCEC confluent monolayers; experiment: BCEC scratch assay; format: cell-based, bovine; conditions: over 48 hours relative to control
Experimental: BCECs (passage 6-10) and HUVEC (passage 6-8) were used in this assay. Cells were grown until about 80% confluency in 6-well plates, washed twice with PBS and then starved in serum-free DMEM (low Glucose, Hyclone) for 5 hrs before making a “scratch” using 1 ml tip. Cell monolayers were briefly washed once with serum-free media, followed by various treatments in media containing 1% FBS. 48 hrs later, the assay was stopped by adding 2 ml 4% paraformaldehyde. 20 min later, fixed cells were stained with 1 ml Crystal Violet (Sigma). Plates were washed gently under the running tap water and air-dried before taking pictures. Images were acquired by ZEISS Discovery […] microscopy equipped with […] camera. Quantification of wound closure was done using AxioVision LE Rel.4.4 software. Six images were taken for each sample and six measurements (in pixel) were made on each image using AxioVision LE Rel.4.4 software.

JNK/c-Jun = experiment: Western blot of JNK pathway activation in BCECs; format: cell-based, bovine; conditions: media without growth factors
Experimental: as §1, with “80%” for “˜80%”

[4] = mouse, in vivo, po
retinal vasculature = experiment: Retinal neovascularization after intravitreal injection; format: in vivo, mouse; conditions: intravitreal 500 ng ManN or Kif, 200 ng bFGF; seven days
Experimental: Assessment of retinal angiogenesis following intravitreal administration was done. Briefly, 6-8 weeks old C57BL/6 male mice were randomly allocated to different groups and anesthetized with ketamine/Xylazine cocktail. The indicated amounts of ManN, Kif or bFGF (R&D systems, AF-233-NA) in 1 μl of PBS and PBS vehicle control were injected intravitreally with a 33-gauge Hamilton syringe. Seven days after injection, animals were euthanized. Eyes were then enucleated and fixed in 4% paraformaldehyde (PFA) for 30 mins. Retinas were separated and stained with anti-CD31 immunofluorescence (IF) to evidence the vasculature. Evaluations were performed by an investigator blinded to the treatment. For CD31 IF, rat anti-mouse antibody (BD Biosciences, CAT #550274) was diluted 1:100 and incubated overnight at 4° C. After 4-hour incubation with the Alexa Fluor-488-conjugated anti-rat antibody (Life Technologies, A11006), whole mounts were imaged via the 488 nm channel using A1R Confocal STORM super-resolution system (Nikon). Quantification of vascular density in choroids and retina was carried out by Image J. Each experiment was repeated three times with similar results, and each treatment group consists of 5 individual samples.

For `O=C(O)CCCc1ccccc1` [4-PBA, 4-phenylbutyric acid], the “additivity between ManN and VEGF after chemical chaperon pre-treatment” value ([1]; 1 mM 4-PBA) was “largely abolished”, the “reversal of bell-shaped activity of ManN on BCEC proliferation by chemical chaperon” value ([1]; pre-treating with 1 mM 4-PBA for 4 hours, absence or presence of VEGF) was “effectively reverse the bell-shaped activity of ManN” and the “prevention of CHOP induction by ManN” value (Bip, CHOP and ATF-6) was “prevent the induction of CHOP expression”. The “restoration of ATF-6 expression” value (Bip, CHOP and ATF-6) was “restore the expression of ATF-6”.

For `O[C@H]1[C@H](O)[C@@H](O)CN2CC[C@H](O)[C@H]12` [Cas, Castanospermine, reference compound], the “activation of ERK” value ([2]; 40 uM, BCECs) was “less obvious; also recorded: did not activate ERK”, the “BCEC proliferation with N-glycosylation inhibitors” value ([1]; absence or presence of 5 ng/ml VEGF) was “stimulated in a dose-dependent fashion” and the “VEGFR2 molecular mass after glycosylation inhibitor treatment” value (VEGFR2) was “reduction in VEGFR2 molecular mass”. For the same compound, the “Bip expression with glycosylation inhibitors” value (Bip, CHOP and ATF-6; media without growth factors for 24 hours) was “dose-dependent induction of Bip expression”, the “activation of ERK” value (ERK and AKT) was “less obvious” and the “activity of glycosylation inhibitors in BCEC scratch assay” value [3] was “significant activity”. The “activation of JNK pathway (JNK and downstream c-Jun)” value (JNK/c-Jun) was “able to activate the JNK pathway”.

With `Cl.NCC(=O)[C@@H](O)[C@H](O)[C@H](O)CO` [D-isoglucosamine, 1-Amino-1-deoxy-D-Fructose hydrochloride] the “stimulation of BCEC proliferation by structurally related molecules” value (“stimulation of BCEC proliferation” below) [1] was “None of these molecules stimulated BCEC proliferation”.

For `N[C@@H]1C(O)O[C@H](COP(=O)(O)O)[C@@H](O)[C@@H]1O` (stereo partly drawn) [ManN-6p, ManN-6-phosphate], the “ManN-6p in ischemic leg muscle” value [4] was 0.91+/−0.24 nmol/mg protein.

In the case of `CC(=O)N[C@@H]1C(O)O[C@H](CO)[C@@H](O)[C@@H]1O` (stereo partly drawn) [ManNAc, N-acetyl-Mannosamine, reference compound], the “activation of ERK, AKT, mTOR, CREB, ACC and eNOS by other agents” value ([2]; 40 μM, compared with ManN) is reported as “induced a similar activation”.

With `CC(=O)N[C@H]1[C@H]([C@H](O)[C@H](O)CO)OC(O)(C(=O)O)C[C@@H]1O` (stereo partly drawn) [N-Acetyl-neuraminic acid, N-Acetylneuraminic acid] the “stimulation of BCEC proliferation” value [1] was “None of these molecules stimulated BCEC proliferation”.

With `C[C@H](CCC(=O)NCCS(=O)(=O)O)[C@H]1CC[C@H]2[C@@H]3[C@@H](O)C[C@@H]4C[C@H](O)CC[C@]4(C)[C@H]3CC[C@]12C` [TUDCA, tauroursodeoxycholic acid] the “prevention of CHOP induction by ManN” value (Bip, CHOP and ATF-6) was “not” and the “restoration of ATF-6 expression” value (Bip, CHOP and ATF-6) was “much weaker”.

In the case of `C[C@H](O)[C@@H](O)[C@@H](O)[C@H](O)C=O` [fucose, reference compound], the “block of ManN effects on BCEC proliferation by monosaccharides” value [1] is reported as “not”.

With `N[C@H]1C(O)O[C@H](CO)[C@H](O)[C@@H]1O` (stereo partly drawn) [galactosamine, D-(+)-Galactosamine] the “stimulatory effect of hexosamines on BCEC proliferation” value [1] was “none of these hexosamines had significant stimulatory effects”.

In the case of `O=C[C@H](O)[C@@H](O)[C@@H](O)[C@H](O)CO` [galactose, reference compound], the “block of ManN effects on BCEC proliferation by monosaccharides” value [1] is reported as “not”.

In the case of `N[C@H]1C(O)O[C@H](CO)[C@@H](O)[C@@H]1O` (stereo partly drawn) [glucosamine, D-(+)-Glucosamine], the “stimulatory effect of hexosamines on BCEC proliferation” value [1] is reported as “none of these hexosamines had significant stimulatory effects”.

For `CNC[C@H](O)[C@@H](O)[C@H](O)[C@H](O)CO` [meglumine, Meglumine], the “stimulation of BCEC proliferation” value [1] was “None of these molecules stimulated BCEC proliferation”.

For `C[C@@H](O[C@H]1[C@H](O)[C@@H](CO)OC(O)[C@@H]1N)C(=O)O` (stereo partly drawn) [muramic acid, Muramic acid], the “stimulation of BCEC proliferation” value [1] was “None of these molecules stimulated BCEC proliferation”.

For “bFGF: bFGF growth factor purchased from R&D systems, positive control”, the “increase in density of retinal vessels compared to PBS group” value (retinal vasculature) was “about 35%”.

— patent publication US20230390315A1, “COMPOSITIONS AND METHODS FOR TREATING ISCHEMIC CONDITIONS” (The Regents of the University of California, priority 2020, published 2023)
